Test results taken from patent US20060240494A1, “Biocidal molecules, macromolecular targets and methods of production and use” (priority 2000, published 2006).
pIC50, pKd: −log10 of the molar value. Values joined by “and” are separate entries in the source; they are usually repeats but may differ in a detail not shown here. Equal values may be shown once. Read-outs that look alike come from different tables or passages of the source. Non-standard residues stand in square brackets, D forms with d. Residues, ends and D or L forms follow the SMILES beside them. No end group written: not given here. Ac6c = NC1(C(=O)O)CCCCC1; Dap = NC[C@H](N)C(=O)O

How the values were obtained:
[1] = system: M. luteus; test: Growth inhibition assay, M. luteus; assay type: cell-based, Micrococcus luteus; details: Luria-Bertani rich nutrient medium
Protocol: Growth inhibition assays are performed using the candidate antibacterial compounds and the Gram positive microorganisms Micrococcus luteus and Bacillus megaterium, and the Gram negative microorganisms, Escherichia coli D22, Agrobacterium tumefaciens, and Salmonella typhimurium. Antibacterial assays are performed in sterilized 96-well plates (Nunc F96 microtiter plates) with a final volume of 100 μl as described in Bulet (1996), cited above. Briefly, 90 μl of a suspension of a midlogarithmic phase bacterial culture at an initial 600 nm UV absorbance of 0.001 in Luria-Bertani rich nutrient medium is added to 10 μl of serially diluted candidate compounds in sterilized water. The final compound concentrations range between 0.15 and 80 μM, and more preferably between 0.3 μM and 40 μM. The plates are incubated at 30° C. for 24 hours with gentle shaking, and the growth inhibition is measured by recording the increase of the UV absorbance at 600 nm on an SLT Labinstruments 400 ATC microplate reader. The experiments are conducted over a 7-month period.
The inhibitory concentrations (IC50) of each candidate compound is determined against each above-indicated microorganism.
As one example, this in vitro antibacterial assay was performed on a broad spectrum divalent pyrrhocoricin analog, Chex-Pyrrhocoricin-2-19-Dap-[Chex-Pyrrhocoricin-2-19-Dap(Ac)], and the results illustrated in Table 4.

[2] = within a four-hour period; Hoffmann et al, 1999; cited from earlier work
[3] = within a four-hour period; Hoffmann et al, 1999; cited from earlier work; remark: listed apart in the source
[4] = system: alkaline phosphatase activities of live E. coli TG-1 cells; assay type: cell-based; details: peptide 32 μg/mL; live E. coli TG-1; four independent assays
[5] = target: E. coli DnaK fragment aa588-615 (Escherichia coli, UniProt P0A6Y8); test: Fluorescence polarization with synthetic DnaK fragment aa588-615; assay type: binding
[6] = system: β-galactosidase activities of live E. coli TG-1 cells; assay type: cell-based; details: for Inhibition of enzymatic activity after 1 hour (%) β-Galactosidase: peptide 32 μg/mL, live E. coli TG-1, three independent assays
[7] = target: T1, recombinant E. coli DnaK (Escherichia coli, UniProt P0A6Y8); test: EnzChek ATPase assay, recombinant DnaK; assay type: biochemical; details: 50 molar equivalents of peptide; 22° C., 30 min; UV absorbance at 360 nm
T1 construct: purchased StressGen, Victoria, Canada
Text: To determine whether the proline-rich antibacterial peptides that were predicted to bind to DnaK between the peptide binding pocket and the C-terminus would interfere with ATPase activity, a recently developed continuous spectrophotometric (colorimetric) ATPase activity assay [Rieger, C. E. et al, (1997) Anal. Biochem. 246: 86-95] was used. This assay uses using 2-amino-6-mercapto-7-methylpurine ribonucleoside (MESG)/purine nucleoside phosphorylase reaction to detect the released inorganic phosphate (EnzChek ATPase determination kit from Molecular Probes, Eugene, USA). Assays were performed in 500 μL tubes in duplicates in a total volume of 125 μL containing 20 mM tris(hydroxymethyl)amino-ethane (Tris)-HCl, pH 7.6, 1 mM MgCl2, […] (except in assaying the baseline), 5 μg of DnaK (recombinant DnaK protein from StressGen,Victoria, Canada) and 50 molar equivalents of the particular peptide, MESG and the purine nucleoside phosphorylase recommended by the manufacturer. After incubation at 22° C. for 30 min, 100 μL of the reaction mixture was transferred to a quartz cuvette and the ultraviolet (UV) absorbance at 360 nm was measured. The assay was run in a miniaturized form to increase the concentration and therefore the enzymatic activity of DnaK. In a larger, standard format the ATPase activity of DnaK without peptide addition was 6 pmol/μg/min, in line with the published data of 4 pmol/μg/min [Liberek, K. et al, (1991) Proc. Natl. Acad. Sci. USA 88: 2874-2878].

[8] = target: E. coli DnaK aa583-615 (Escherichia coli, UniProt P0A6Y8); test: Circular dichroism of peptide - E. coli DnaK fragment mixtures; assay type: binding; details: DnaK spectrum subtracted from mixture
Text: CD spectra are taken in water, and water-trifluoroethanol (TFE) mixtures to determine whether the characteristic unordered or turn→α-helix conformational transition, frequently observed for peptide fragments of helical domains of proteins, occurs at identical TFE concentrations. In pure water, the CD spectra of the E. coli and S. aureus DnaK fragments could be assigned as a type C spectrum, and reflect the dominance of type I (III) β-turns, or a mixture of type I and type II turns. […] This is an unmistakable indication of the appearance of helical structures, most likely 310-helices. The two DnaK fragments behaved identically, at least in spectral terms. While the spectral features of well-developed α-helices could already be seen at a TFE concentration as low as 10%, the intensity was increased with increasing TFE content. In 100% TFE a fully α-helical spectrum was recorded.
To estimate the bound conformation of the antibacterial peptides, the spectra of drosocin or pyrrhocoricin alone, as well as those of the E. coli and S. aureus DnaK fragments were recorded, followed by the recording of the CD spectra of antibacterial peptide-DnaK fragment mixtures. […]

[9] = system: S. aureus; details: Otvos et al, 2000, Biochemistry; cited from earlier work
[10] = system: E. coli strain (ATCC 25922); test: Validated antibacterial assay conditions, E. coli ATCC 25922; assay type: cell-based
[11] = system: E. coli infection; details: Otvos et al, 2000, cited from earlier work
[12] = target: E. coli DnaK fragment aa583-615 (D-E helix hinge) (Escherichia coli, UniProt P0A6Y8); test: Fluorescence polarization with synthetic DnaK fragment aa583-615; assay type: binding
Protocol: The binding of the synthetic DnaK fragments to their fluorescein-labeled pyrrhocoricin counterparts was also assessed in solution, by fluorescence polarization [Lundblad, J. R. et al, (1996) Mol. Endocrinol. 10: 607-612]. For these experiments, the unlabeled peptides were serially diluted in PBS (pH 7.4) or 0.1 M Tris-HCl (pH 8.0) containing 0.1 M ethylene-diamine-tetraacetic acid (EDTA) in 50 μL final volume in 6×50 mm disposable glass borosilicate tubes. The fluoresceinated peptides were added to each tube in a 50 μL aliquot to a final concentration of 1 nM and tubes were incubated at 37° C. for 5 minutes. The extent of fluorescence anisotropy was measured on a Beacon 2000 fluorescence polarization instrument (PanVera, Madison, Wis.) and calculated as millipolarization values. The filters used were 485 nm excitation and 535 nm emission with 3 nm band width. Non-linear curve fitting was done by using a dose-response logistical transition [y=a0+a1/(1+x/a2)^a^3] and the Levenberg-Marquardt Algorithm within the SlideWrite software package. The provided Kd value (a2 coefficient) was calculated by the program.
To quantitatively characterize the pyrrhocoricin—D-E helix interaction, the complete binding curves were measured for E. coli DnaK fragments aa583-615 and aa588-615, both of SEQ ID NO: 10.

[13] = system: Ras; test: Competition fluorescence polarization against labeled pyrrhocoricin, Ras; assay type: binding; details: 4 μM Ras reading 52±7
[14] = system: bacteria; test: Bacterial killing by labeled and unlabeled pyrrhocoricin; assay type: cell-based
[15] = target: S. aureus aa554-585 DnaK fragment (Staphylococcus aureus, UniProt P45554); test: Circular dichroism of peptide - S. aureus DnaK fragment mixtures; assay type: binding; details: wavelength of band maxima
Protocol: To estimate the bound conformation of the antibacterial peptides, the spectra of drosocin or pyrrhocoricin alone, as well as those of the E. coli and S. aureus DnaK fragments were recorded, followed by the recording of the CD spectra of antibacterial peptide-DnaK fragment mixtures. Finally the original spectra of the DnaK peptides were subtracted from the spectra of the mixtures, and the residual spectra, representing the conformation of the bound peptides were compared to the spectra of the antibacterial peptides alone. This exercise is justifiable only if the conformation of the protein fragments remain unchanged upon interaction with drosocin or pyrrhocoricin. […] It is expected that the binding will not modify the helix structure of the rigid DnaK fragments, but can influence the conformation of the flexible antibacterial peptides.
The results of this conformational analysis for pyrrhocoricin—E. coli DnaK interaction are as follows. The CD spectrum of the mixture of the two peptides resembled that of the DnaK fragment alone, except that the intensities were lower, due to the lower intensity of the CD spectrum of pyrrhocoricin.
To ascertain that this conformational change upon binding was not a spectroscopical artifact, the procedure was repeated with pyrrhocoricin and the DnaK peptide derived from the non-responsive strain S. aureus.

[16] = target: Hsp70 (Homo sapiens, UniProt P0DMV8); test: EnzChek ATPase assay, recombinant Hsp70; assay type: biochemical; details: human equivalent of DnaK
[17] = target: GroEL (Escherichia coli, UniProt P0A6F5); assay type: binding, E. coli; parameters: purchased; host or cells: E. coli; details: then 1 nM fluorescein-K-pyrrhocoricin, no peptide 70 ± 10
[18] = system: E. coli D22; details: Otvos et al, 2000, Protein Science; cited from earlier work
[19] = target: DnaK (Escherichia coli, UniProt P0A6Y8); assay type: binding, E. coli; parameters: purchased; host or cells: E. coli
Sequence of DnaK (P0A6Y8 whole entry): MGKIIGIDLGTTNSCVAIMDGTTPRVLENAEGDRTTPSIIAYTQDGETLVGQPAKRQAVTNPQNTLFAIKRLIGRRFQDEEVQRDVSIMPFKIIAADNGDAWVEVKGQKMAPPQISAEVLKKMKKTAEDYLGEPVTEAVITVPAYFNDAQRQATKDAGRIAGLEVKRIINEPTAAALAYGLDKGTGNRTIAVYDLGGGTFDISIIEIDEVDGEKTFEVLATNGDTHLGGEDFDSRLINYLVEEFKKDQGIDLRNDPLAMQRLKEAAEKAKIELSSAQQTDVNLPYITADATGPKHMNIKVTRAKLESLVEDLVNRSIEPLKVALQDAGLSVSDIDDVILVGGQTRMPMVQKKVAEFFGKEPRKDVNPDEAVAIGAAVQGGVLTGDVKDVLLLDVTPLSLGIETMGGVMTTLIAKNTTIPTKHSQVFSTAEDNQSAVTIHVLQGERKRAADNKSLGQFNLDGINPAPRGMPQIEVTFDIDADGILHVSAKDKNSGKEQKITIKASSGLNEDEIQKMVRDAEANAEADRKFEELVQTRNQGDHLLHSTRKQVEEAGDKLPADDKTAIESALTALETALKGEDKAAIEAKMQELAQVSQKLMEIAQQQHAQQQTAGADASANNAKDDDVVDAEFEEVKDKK

Sequence of E. coli DnaK aa583-615 (P0A6Y8 584-616 limits assumed): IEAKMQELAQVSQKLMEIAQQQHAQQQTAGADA
Sequence of GroEL (P0A6F5 2-548 limits assumed): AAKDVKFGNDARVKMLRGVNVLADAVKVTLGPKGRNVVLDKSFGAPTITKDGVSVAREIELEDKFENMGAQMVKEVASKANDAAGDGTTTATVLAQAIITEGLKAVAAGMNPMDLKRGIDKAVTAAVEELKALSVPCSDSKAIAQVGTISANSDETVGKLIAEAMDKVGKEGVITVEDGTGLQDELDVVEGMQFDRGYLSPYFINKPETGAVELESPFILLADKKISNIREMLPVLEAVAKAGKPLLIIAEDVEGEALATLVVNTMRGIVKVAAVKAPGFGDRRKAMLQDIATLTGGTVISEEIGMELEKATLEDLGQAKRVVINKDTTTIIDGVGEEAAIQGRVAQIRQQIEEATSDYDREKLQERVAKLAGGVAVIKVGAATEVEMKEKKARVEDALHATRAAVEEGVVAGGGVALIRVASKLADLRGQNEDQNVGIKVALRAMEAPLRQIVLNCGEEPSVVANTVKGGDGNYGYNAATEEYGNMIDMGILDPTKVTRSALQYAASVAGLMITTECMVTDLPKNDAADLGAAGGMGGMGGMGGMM
T1 sequence (P0A6Y8 whole entry): as the sequence (P0A6Y8 whole entry) above
Sequence of E. coli DnaK fragment aa588-615 (P0A6Y8 589-616 limits assumed): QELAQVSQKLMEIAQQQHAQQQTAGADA
Sequence of S. aureus aa554-585 DnaK fragment (P45554 554-585 limits assumed): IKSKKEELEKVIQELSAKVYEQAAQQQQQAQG
Sequence of E. coli DnaK fragment aa583-615 (D-E helix hinge) (P0A6Y8 584-616): as the sequence (P0A6Y8 584-616 limits assumed) above
Sequence of Hsp70 (P0DMV8 whole entry): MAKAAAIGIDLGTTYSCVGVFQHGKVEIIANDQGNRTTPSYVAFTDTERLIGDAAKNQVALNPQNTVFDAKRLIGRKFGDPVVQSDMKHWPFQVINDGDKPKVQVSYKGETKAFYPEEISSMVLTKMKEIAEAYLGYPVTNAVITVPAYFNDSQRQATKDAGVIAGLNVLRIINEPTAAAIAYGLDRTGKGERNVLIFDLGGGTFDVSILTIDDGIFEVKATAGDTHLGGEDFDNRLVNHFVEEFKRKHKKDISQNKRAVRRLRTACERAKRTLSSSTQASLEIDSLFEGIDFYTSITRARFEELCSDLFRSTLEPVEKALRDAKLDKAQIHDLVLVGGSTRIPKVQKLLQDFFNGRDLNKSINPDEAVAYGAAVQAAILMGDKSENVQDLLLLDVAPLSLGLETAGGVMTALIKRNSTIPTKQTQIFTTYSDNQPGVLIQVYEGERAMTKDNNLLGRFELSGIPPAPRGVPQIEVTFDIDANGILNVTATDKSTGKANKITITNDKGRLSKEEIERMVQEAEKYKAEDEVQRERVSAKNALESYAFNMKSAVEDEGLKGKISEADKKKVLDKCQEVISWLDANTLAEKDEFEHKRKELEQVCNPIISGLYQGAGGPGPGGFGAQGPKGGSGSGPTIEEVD

Compound: CC[C@H](C)[C@H](NC(=O)[C@@H]1CCCN1C(=O)[C@H](CCCNC(=N)N)NC(=O)[C@@H]1CCCN1C(=O)[C@@H]1CCCN1C(=O)[C@@H](NC(=O)[C@@H]1CCCN1C(=O)[C@H](CCCNC(=N)N)NC(=O)[C@@H]1CCCN1C(=O)[C@H](CC(C)C)NC(=O)[C@H](Cc1ccc(O)cc1)NC(=O)[C@H](CO)NC(=O)CNC(=O)[C@H](CCCCN)NC(=O)[C@H](CC(=O)O)NC(=O)C1(NC(=O)[C@H](CN)NC(=O)[C@H](CCCNC(=N)N)NC(=O)[C@H](CC(N)=O)NC(=O)[C@H](Cc2ccc(O)cc2)NC(=O)[C@@H](NC(=O)[C@@H]2CCCN2C(=O)[C@H](CCCNC(=N)N)NC(=O)[C@@H]2CCCN2C(=O)[C@@H]2CCCN2C(=O)[C@@H](NC(=O)[C@@H]2CCCN2C(=O)[C@H](CCCNC(=N)N)NC(=O)[C@@H]2CCCN2C(=O)[C@H](CC(C)C)NC(=O)[C@H](Cc2ccc(O)cc2)NC(=O)[C@H](CO)NC(=O)CNC(=O)[C@H](CCCCN)NC(=O)[C@H](CC(=O)O)NC(=O)C2(N)CCCCC2)[C@@H](C)O)[C@@H](C)CC)CCCCC1)[C@@H](C)O)C(=O)N[C@@H](Cc1ccc(O)cc1)C(=O)N[C@@H](CC(N)=O)C(=O)N[C@@H](CCCNC(=N)N)C(=O)N[C@@H](CNC(C)=O)C(=O)O [Chex-Pyrrhocoricin-2-19-Dap-[Chex-Pyrrhocoricin-2-19-Dap(Ac)]] (H-[Ac6c]DKGSYLPRPTPPRPIYNR[Dap][Ac6c]DKGSYLPRPTPPRPIYNR[Dap](Ac)-OH; C-terminus assumed)
- pIC50 [1]: 4.10 to 4.40

Compound: GKPRPYSPRPTSHPRPIRV [Drosocin]
- degradation in diluted mouse serum [2]: completely degraded
- degradation in diluted human serum [3]: completely degraded
- Inhibition of enzymatic activity after 1 hour (%) Alkaline Phosphatase [4]: 35 ± 27%
- binding to aa588-615 fragment [5]: considerably weaker than pyrrhocoricin
- effect on β-galactosidase activity after 6 hours ([6]; 32 μg/mL, FIG. 2A): detrimental
- Inhibition of enzymatic activity after 1 hour (%) β-Galactosidase [6]: 98 ± 68%
- effect on ATPase activity of recombinant DnaK [7]: without affecting
- CD spectral change of the peptide upon mixing with DnaK fragment [8]: did not appear to modify the conformation

Compound: VDKGSYLPRPTPPRPIYNRN [pyrrhocoricin]
- activity against S. aureus in vitro [9]: inactive
- Inhibition of enzymatic activity after 1 hour (%) Alkaline Phosphatase [4]: 32 ± 16%
- killing of E. coli ATCC 25922 [10]: failed to kill
- toxicity in vivo ([11]; higher dose for pyrrhocoricin, compromised animals): toxic to compromised animals
- protection of mice against E. coli infection ([11]; low doses for pyrrhocoricin): protected mice
- Inhibition of enzymatic activity after 1 hour (%) β-Galactosidase [6]: 153 ± 57%
- pKd [12]: 4.29
- effect on ATPase activity of recombinant DnaK [7]: less than half of the original value
- decrease of the Ras readings ([13]; preincubation with 4 μM peptide): 16 millipolarization units
- decrease of the Ras readings ([13]; preincubation with 8 μM peptide): 27 millipolarization units
- concentration range killing bacteria [14]: mid-nanomolar concentration range
- CD spectral change of the peptide upon mixing with DnaK fragment [15]: remained unchanged
- effect on ATPase activity of recombinant Hsp70 [16]: did not influence
- Millipolarization after preincubation with ([17]; 4 μM GroEL preincubated with 4 μM unlabeled peptide, corrected with Ras readings): 62
- Millipolarization after preincubation with ([17]; 4 μM GroEL preincubated with 8 μM unlabeled peptide): 62
- killing of E. coli D22 [18]: nanomolar concentrations
- Millipolarization after preincubation with [19]: 110 and 84
- CD spectral change of the peptide upon mixing with DnaK fragment [8]: redshift of both pyrrhocoricin bands
